Data taken from ChEMBL document CHEMBL4043072, “Catechin-Bound Ceanothane-Type Triterpenoid Derivatives from the Roots of Zizyphus jujuba” (J Nat Prod, 2017).

Test: Inhibition of cell proliferation of activated rat HSC-T6 cells incubated for 24 hrs by MTT assay
Type: functional, cell-based
Settings: HSC-T6, 24 h

| Structure (SMILES) | IC50 [µM] |
| --- | --- |
| C=C(C)[C@@H]1CC[C@]2(C(=O)O)CC[C@]3(C)[C@H](CC[C@@H]4[C@@]5(C)[C@H]6C(=O)c7c(cc(O)c8c7O[C@@H](c7ccc(O)c(O)c7)[C@@H](O)C8)O[C@@H]6C(C)(C)[C@@H]5CC[C@]43C)[C@@H]12 | 43.5 |
| O=C(O[C@@H]1Cc2c(O)cc(O)cc2O[C@@H]1c1cc(O)c(O)c(O)c1)c1cc(O)c(O)c(O)c1 [EPIGALOCATECHIN GALLATE] | 31.6 |
